{
  "source": "patent US7101844B2",
  "about": "“Cytoplasmic transduction peptides and uses thereof” (Creagene, Inc., priority 2002, dated 2006)",
  "key": {"HeLa cells [1]": {"test_system": "HeLa cells", "test": "Transduction of PTD- and CTP-β-galactosidase into HeLa cells (X-gal staining after fixation)", "format": "cell-based", "settings": "100 μg/ml, 1 hr; for transduction potential: β-galactosidase fusion protein, HeLa cells, fixation", "from_the_text": "Although various other substitutions could be performed, it is essential in this invention that the introduction of a positive charge by arginine and the substitution by an α-helix stabilizing amino acid should be carried out for maintaining the principle function of the PTD peptide. Therefore, as a substitute amino acid, the positively charged amino acid is restricted to arginine, and the negatively charged amino acid is restricted to glutamic acid. β-galactosidase was fused to the CTP candidate peptide, the fusion proteins were isolated and purified (see FIG. 2), and HeLa cells were treated with each of the fusion proteins. This was then followed by an analysis of the transduction potential and a determination of the extent of the cytoplasmic remaining property.\nThe transduction potential of the PTD and CTP candidates was tested with HeLa cells. Using a 24-well plate (Nunc), 5×10^4 HeLa cells were inoculated into high glucose DMEM (containing 10% FBS) and cultured for 36 hr. The cells were rinsed with PBS and treated with 100 μg/ml of PTD- and CTP-β-galactosidase in an opti-MEM I medium. After 1-hr incubation, cells were fixed for 10 min at room temperature with a fixation solution (2% formaldehyde, 0.2% glutaraldehyde in PBS). Then, the cells were rinsed twice with PBS, and stained for 2 hr with dye (0.1% X-gal, 5 mM potassium ferricyanide, 5 mM potassium ferrocyanide, 2 mM MgCl2 in PBS) to examine their transduction potential (see FIG. 3). The samples showing a low level of staining, even after a 2-hr staining, were incubated overnight, and then stained for the relative transduction potential. The transduction potentials of the PTD and CTP candidates into HeLa cells were seen to be in the following order: PTD5<CTP502<<CTP501=CTP506<CTP507<CTP505<CTP503=CTP504<CTP508=CTP510=MTS<CTP509<<PTD=CTP511<<CTP512."}, "HeLa cells [2]": {"test_system": "HeLa cells", "test": "Transduction potential of CTP-β-gal following treatment with trypsin (staining)", "format": "cell-based", "settings": "50 μg/ml, 20 hr, trypsin before fixation", "method": "HeLa cells were cultured for 1 day in DMEM (high glucose) at a density of 2×10^5/ml in 48-well plates. Cells were washed once with 1× PBS, and then incubated further for additional 20 hr in OPTI-MEM containing PTD-β-gal, MTS-β-gal, CTP501-β-gal or CTP514-β-gal, respectively, at a concentration of 50 μg/ml. Thereafter, the cells were treated with trypsin-EDTA (10×) for 3 min at 37° C. to remove the CPP-β-gal attached to the cell surface, and then rinsed twice with 1× PBS, followed by fixing with a fixation solution for 10 min at room temperature. After washing twice with 1× PBS, the cells were stained with a staining solution for 2 hr at 37° C. and photographed under a microscope (FIG. 6b)."}, "HeLa cells [3]": {"test_system": "HeLa cells", "test": "Transduction potential of FITC-labeled peptides by FACS", "format": "cell-based", "settings": "FITC-labeled peptide", "from_the_text": "It has been shown by trypsin treatment that the transduction potential of the peptides known so far is distorted presumably due to the influence of cell fixation (46). Therefore, to verify that the CTP-β-gal of this invention has genuine transduction potential, trypsinization steps were included in the experiments as described above. At this time, since the activity of CTP per se may be affected by its fusion partner β-gal, CTP labeled with fluorescent molecule instead of β-gal was examined for its transduction capacity into cells. HeLa cells were treated with CTP-FITC and then trypsinized prior to harvest. The amounts of the peptides transduced into the cells were measured by FACS (Fluorescence-activated cell sorter) analysis with FACSCalibur (Becton Dickison, USA).\nHeLa cells were inoculated into 12-well plates at a density of 2×10^5/ml and cultured for 1 day at 37° C. […] The cells were washed twice and the fluorescent intensity of each sample was measured by FACS.\nIn order to examine the transduction potential of peptides at different concentrations, cells were treated for 2 hr with peptides with increasing concentrations of peptides, and then trypsinized before examination. The fluorescent intensity in the cells was measured by FACS."}, "HeLa cells [4]": {"test_system": "HeLa cells", "test": "Subcellular localization of CTP-FITC by confocal microscope without cell fixation", "format": "cell-based", "settings": "FITC-labeled peptide, 25 μg/ml, 1 hr", "from_the_text": "Fixation step is inevitable for examining the subcellular localization of the transduced β-gal in the cells with antibodies. However, according to the previous reports, the fusion protein attached to cell surface is very likely to be introduced into the cell during a cell fixation procedure, which may affect its transduction potential and its subcellular localization. However, FITC-labeled membrane permeation peptides allow its subcellular localization to be observed under a confocal microscope without cell fixation. Monolayered HeLa cells were treated for 1 hr with FITC-labeled CTP, PTD or MTS at a concentration of 25 μg/ml, and washed three times with HBSS, followed by observation under a confocal microscope without cell fixation."}, "[5]": {"test_system": "HeLa, L929, RENCA, Jurkat cell lines and splenocytes", "test": "Transduction potential of CTP in various cell types", "format": "cell-based, human, mouse", "settings": "FITC-labeled peptide", "method": "The examples described above analyzed the transduction potential solely by the use of HeLa cells. In this Example, the transduction potential of CTP was evaluated with other cell types including mouse cell lines (mouse fibroblast L929 and mouse renal cancer cell line RENCA), human lymphoid T cell line (Jurkat cells) and primary mouse splenocytes."}},
  "note": "Entries after “also recorded” stand apart in the source; their conditions may differ.",
  "data": [
    {"substance": "CTP512: CTP (2G4R8R9R), sequence YGRRARRRRRR; representative CTP used from Example 5-4 on", "values": [
      {"measurement": "transduction potential", "setting": "HeLa cells [1]", "value": "higher transduction potential than the wild type PTD; also recorded: significantly high transduction potential"},
      {"measurement": "transduction potential", "setting": "HeLa cells [1]; listed as CTP 512", "value": "transduction potential higher than wild type PTD"},
      {"measurement": "order of transduction potentials into HeLa cells", "setting": "HeLa cells [1]; β-galactosidase fusion, X-gal staining", "value": "CTP511<<CTP512"},
      {"measurement": "β-gal activity transduced into cells", "setting": "HeLa cells [2]", "value": "much more efficient to transduce β-gal into cells than either PTD or MTS"},
      {"measurement": "transduction potential at the same concentrations", "setting": "HeLa cells [3]; 2 hr, trypsinized", "value": "significantly higher transduction potential than either PTD or MTS"},
      {"measurement": "transduction potential over time", "setting": "HeLa cells [3]; trypsinized cells, FACS", "value": "higher transduction potential than the PTD in all period of time"},
      {"measurement": "order of transduction potential", "setting": "HeLa cells [4]", "value": "CTP512>513"},
      {"measurement": "subcellular localization", "setting": "HeLa cells [4]", "value": "observed only in the cytoplasm, and not in the nucleus"},
      {"measurement": "transduction potential in various cell types", "setting": "[5]", "value": "highest transduction potential"}
    ]}
  ]
}
